Laboratory results published in patent US12247011B2, “Selective inhibitors of NLRP3 inflammasome” (NodThera Limited, priority 2017, dated 2025).
pIC50: −log10 of the molar value.

System: IL-1β release upon NLRP3 activation in peripheral blood mononuclear cells (PBMC)
Assay: PBMC IC50 Determination Assay
Format: cell-based
Settings: Homo sapiens; LPS-primed PBMC, 30 min compound, stimulated with ATP (5 mM) or nigericin (10 μM) for 1 h; IL-1β ELISA; read-out: PBMC IC50

Row | SMILES | pIC50
1 | O=C(Nc1c2c(cc3c1CCC3)CCC2)O[C@H](Cn1cncn1)C(=O)OC1CCCC1 [Compound 116, Cyclopentyl (2R)-2-{[(1,2,3,5,6,7-hexahydro-s-indacen-4-yl)carbamoyl]oxy}-3-(1H-1,2,4-triazol-1-yl)propanoate] | > 8.00
2 | Cc1cncc(CC(OC(=O)Nc2c3c(cc4c2CCC4)CCC3)C(=O)OC(C)C)n1 (centres unmarked) [Compound 117, Propan-2-yl 2-{[(1,2,3,5,6,7-hexahydro-s-indacen-4-yl)carbamoyl]oxy}-3-(6-methylpyrazin-2-yl)propanoate] | > 8.00
3 | CC1CCCC(NC(=O)OC(Cc2ncccn2)C(=O)OC(C)C)C1 (centres unmarked) [Compound 118, Propan-2-yl 2-{[(3-methylcyclohexyl)carbamoyl]oxy}-3-(pyrimidin-2-yl)propanoate] | 5.00 to 6.00
4 | CC(C)OC(=O)C(Cc1cnc(C#N)cn1)OC(=O)Nc1c2c(cc3c1CCC3)CCC2 (centres unmarked) [Compound 119, Propan-2-yl 3-(5-cyanopyrazin-2-yl)-2-{[(1,2,3,5,6,7-hexahydro-s-indacen-4-yl)carbamoyl]oxy}propanoate] | > 8.00
5 | Cc1nccc(CC(OC(=O)Nc2c3c(cc4c2CCC4)CCC3)C(=O)OC(C)C)n1 (centres unmarked) [Compound 120, Propan-2-yl 2-{[(1,2,3,5,6,7-hexahydro-s-indacen-4-yl)carbamoyl]oxy}-3-(2-methylpyrimidin-4-yl)propanoate] | 7.00 to 8.00
6 | Cc1cnc(CC(OC(=O)Nc2c3c(cc4c2CCC4)CCC3)C(=O)OC(C)C)cn1 (centres unmarked) [Compound 121, Propan-2-yl 2-{[(1,2,3,5,6,7-hexahydro-s-indacen-4-yl)carbamoyl]oxy}-3-(5-methylpyrazin-2-yl)propanoate] | 7.00 to 8.00
7 | CC(C)OC(=O)C(Cc1ncccn1)OC(=O)NC1(C)CCCCC1 (centres unmarked) [Compound 122, Propan-2-yl 2-{[(1-methylcyclohexyl)carbamoyl]oxy}-3-(pyrimidin-2-yl)propanoate] | < 5.00
8 | CC(C)OC(=O)C(Cc1ncccn1)OC(=O)Nc1c(F)cccc1Cl (centres unmarked) [Compound 123, Propan-2-yl 2-{[(2-chloro-6-fluorophenyl)carbamoyl]oxy}-3-(pyrimidin-2-yl)propanoate] | 6.00 to 7.00
9 | CC(C)OC(=O)C(Cc1ncccn1)OC(=O)Nc1c(F)cccc1F (centres unmarked) [Compound 124, Propan-2-yl 2-{[(2,6-difluorophenyl)carbamoyl]oxy}-3-(pyrimidin-2-yl)propanoate] | 6.00 to 7.00
10 | CC(C)OC(=O)C(Cc1ncccn1)OC(=O)Nc1c(Cl)cccc1Cl (centres unmarked) [Compound 125, Propan-2-yl 2-{[(2,6-dichlorophenyl)carbamoyl]oxy}-3-(pyrimidin-2-yl)propanoate] | 5.00 to 6.00
11 | CC(C)OC(=O)[C@@H](Cn1cnc(C#N)n1)OC(=O)Nc1c2c(cc3c1CCC3)CCC2 [Compound 126, Propan-2-yl (2R)-3-(3-cyano-1H-1,2,4-triazol-1-yl)-2-{[(1,2,3,5,6,7-hexahydro-s-indacen-4-yl)carbamoyl]oxy}propanoate] | 7.00 to 8.00
12 | CC(C)OC(=O)C(Cc1ncccn1)OC(=O)NC12CCC(CC1)CC2 (centres unmarked) [Compound 127, Propan-2-yl 2-[({bicyclo[2.2.2]octan-1-yl}carbamoyl)oxy]-3-(pyrimidin-2-yl)propanoate] | 5.00 to 6.00
13 | CC(C)OC(=O)C(Cc1ccnnc1)OC(=O)Nc1c2c(cc3c1CCC3)CCC2 (centres unmarked) [Compound 128, Propan-2-yl 2-{[(1,2,3,5,6,7-hexahydro-s-indacen-4-yl)carbamoyl]oxy}-3-(pyridazin-4-yl)propanoate] | 6.00 to 7.00
14 | CC(C)OC(=O)C(Cc1ncc(C#N)cn1)OC(=O)Nc1c2c(cc3c1CCC3)CCC2 (centres unmarked) [Compound 130, Propan-2-yl 3-(5-cyanopyrimidin-2-yl)-2-{[(1,2,3,5,6,7-hexahydro-s-indacen-4-yl)carbamoyl]oxy}propanoate] | 7.00 to 8.00
